According to patent US11130752B2, “Aminopyrimidine compound” (Cardurion Pharmaceuticals, LLC, priority 2018, dated 2021):

Each compound was assayed against T1, human CaMKIIδ (Homo sapiens, UniProt Q13557) (assay: In vitro CaMKII inhibitory activity (binding assay, TR-FRET)). Settings: Table 4, GST-tagged human CaMKIIδ, activity ranks.
T1 construct: Full-length, glutathione-S-transferase(GST)-tagged, human CaMKIIδ was purchased from Carna Biosciences; purchased Carna Biosciences (CaMKIIδ); Wako Pure Chemical Industries (calmodulin) 02-111
Method: Evaluation of In Vitro CaMKII Inhibitory Activity (Binding Assay)
In vitro CaMKIIδ inhibitory activity was evaluated by a binding assay.
Full-length, glutathione-S-transferase(GST)-tagged, human CaMKIIδ was purchased from Carna Biosciences (product #02-111, Kobe, Japan). Full-length bovine calmodulin was purchased from Wako Pure Chemical Industries (Osaka, Japan). Terbium-labeled anti-GST antibody (Tb-anti-GST Ab) was purchased from Life Technologies (Carlsbad, Calif., USA). Boron-dipyrromethene (BODIPY)-labeled probe ligand was synthesized as described below.
Time-Resolved Fluorescence Resonance Energy Transfer (TR-FRET) Assay
All assays were conducted using 384-well, white, flat-bottomed plates (product #784075, Greiner Bio-One, Frickenhausen, Germany) in kinase assay buffer, which consists of 50 mM HEPES pH 7.6, 10 mM MgCl2, 1 mM EGTA, 0.01% Brig-35, 0.1 mM DTT). The fluorescent probe ligand was added at a final concentration of 300 nM to solutions containing 0.21 nM Tb-anti-GST Ab, 1 mM CaCl2, 10 μg/mL calmodulin, and 0.5 nM GST-tagged CaMKIIδ. After shaded incubation of the protein-probe mixture on ice for 30 min, the premix was dispensed in the assay plate including test inhibitors with 4 fold dilution series of eight concentrations. After 1 hr incubation at room temperature, TR-FRET signals were measured in duplicate using an EnVision microplate reader (Perkin Elmer, Waltham, Mass., USA). The solution in each well was excited with a laser (λ=340 nm) reflected by a dichroic mirror (D400/D505 (Perkin Elmer) through an excitation filter (UV (TRF) 340, (Perkin Elmer)), and fluorescence from Tb and BODIPY were detected through two emission filters (CFP 495 (Perkin Elmer) for Tb, Emission 520 (Perkin Elmer) for BODIPY).
The percentage of inhibition of test compounds was calculated according to equation (1) Inhibition(%)=100×(μH−T)/(μH−μL) (1)
Where T is the value of the wells containing test compounds and μH and μL are the mean values of the 0% and 100% inhibition control wells, respectively. The values of the 0 and 100% controls were the signals obtained in the absence and presence of 3 μM its parent compound, respectively. The half maximal inhibitory concentration (IC50) of test compounds was calculated by fitting the data with the logistic equation using XLfit (IDBS, Guildford, UK). The IC50 was classified according to the following activity ranks.

SMILES | IC50 [µM]
COCCOCCCOc1nn([C@H]2CC[C@H](N3CCOCC3)CC2)cc1Nc1ncc(-c2ccc(C#N)c(O[C@@H](C)Cn3cnnn3)c2)cn1 [Example 490, 2-(((S)-1-(1H-tetrazol-1-yl)propan-2-yl)oxy)-4-(2-((3-(3-(2-methoxyethoxy)propoxy)-1-((1r,4r)-4-morpholinocyclohexyl)-1H-pyrazol-4-yl)amino)pyrimidin-5-yl)benzonitrile] | < 0.01
C[C@@H](Cn1cnnn1)Oc1cc(-c2cnc(Nc3cn([C@H]4CC[C@H](N5CCOCC5)CC4)nc3OCC3COC3)nc2)ccc1Cl [Example 491, 5-(3-(((S)-1-(1H-tetrazol-1-yl)propan-2-yl)oxy)-4-chlorophenyl)-N-(1-((1r,4r)-4-morpholinocyclohexyl)-3-(oxetan-3-ylmethoxy)-1H-pyrazol-4-yl)pyrimidin-2-amine] | < 0.01
C[C@@H](Cn1cnnn1)Oc1cc(-c2cnc(Nc3cn([C@H]4CC[C@H](N5CCOCC5)CC4)nc3OCC3COC3)nc2)ccc1C#N [Example 492, 2-(((S)-1-(1H-tetrazol-1-yl)propan-2-yl)oxy)-4-(2-((1-((1r,4r)-4-morpholinocyclohexyl)-3-(oxetan-3-ylmethoxy)-1H-pyrazol-4-yl)amino)pyrimidin-5-yl)benzonitrile] | < 0.01
C[C@@H](Cn1cnnn1)Oc1cc(-c2cnc(Nc3cn([C@H]4CC[C@H](N5CCOCC5)CC4)nc3OCCCC#N)nc2)ccc1Cl [Example 493, 4-((4-((5-(3-(((S)-1-(1H-tetrazol-1-yl)propan-2-yl)oxy)-4-chlorophenyl)pyrimidin-2-yl)amino)-1-((1r,4r)-4-morpholinocyclohexyl)-1H-pyrazol-3-yl)oxy)butanenitrile] | < 0.01
C[C@@H](Cn1cnnn1)Oc1cc(-c2cnc(Nc3cn([C@H]4CC[C@H](N5CCOCC5)CC4)nc3OCCCC#N)nc2)ccc1C#N [Example 494, 2-(((S)-1-(1H-tetrazol-1-yl)propan-2-yl)oxy)-4-(2-((3-(3-cyanopropoxy)-1-((1r,4r)-4-morpholinocyclohexyl)-1H-pyrazol-4-yl)amino)pyrimidin-5-yl)benzonitrile] | < 0.01
C[C@@H](Cn1cnnn1)Oc1cc(-c2cnc(Nc3cn([C@H]4CC[C@H](N5CCOCC5)CC4)nc3OCCC(C)(C)O)nc2)ccc1C#N [Example 495, 2-(((S)-1-(1H-tetrazol-1-yl)propan-2-yl)oxy)-4-(2-((3-(3-hydroxy-3-methylbutoxy)-1-((1r,4r)-4-morpholinocyclohexyl)-1H-pyrazol-4-yl)amino)pyrimidin-5-yl)benzonitrile] | < 0.01
COC(C)(C)CCOc1nn([C@H]2CC[C@H](N3CCOCC3)CC2)cc1Nc1ncc(-c2ccc(C#N)c(O[C@@H](C)Cn3cnnn3)c2)cn1 [Example 496, 2-(((S)-1-(1H-tetrazol-1-yl)propan-2-yl)oxy)-4-(2-((3-(3-methoxy-3-methylbutoxy)-1-((1r,4r)-4-morpholinocyclohexyl)-1H-pyrazol-4-yl)amino)pyrimidin-5-yl)benzonitrile] | < 0.01
C[C@@H](Cn1cnnn1)Oc1cc(-c2cnc(Nc3cn([C@H]4CC[C@H](N5CCOCC5)CC4)nc3OCC3CCOCC3)nc2)ccc1Cl [Example 497, 5-(3-(((S)-1-(1H-tetrazol-1-yl)propan-2-yl)oxy)-4-chlorophenyl)-N-(1-((1r,4r)-4-morpholinocyclohexyl)-3-((tetrahydro-2H-pyran-4-yl)methoxy)-1H-pyrazol-4-yl)pyrimidin-2-amine] | < 0.01
C[C@@H](Cn1cnnn1)Oc1cc(-c2cnc(Nc3cn([C@H]4CC[C@H](N5CCOCC5)CC4)nc3OCC3CCOC3)nc2)ccc1Cl (stereo partly drawn) [Example 498, 5-(3-(((S)-1-(1H-tetrazol-1-yl)propan-2-yl)oxy)-4-chlorophenyl)-N-(1-((1r,4r)-4-morpholinocyclohexyl)-3-((tetrahydrofuran-3-yl)methoxy)-1H-pyrazol-4-yl)pyrimidin-2-amine] | < 0.01
C[C@@H](Cn1cnnn1)Oc1cc(-c2cnc(Nc3cn([C@H]4CC[C@H](N5CCOCC5)CC4)nc3OCC3CCCOC3)nc2)ccc1Cl (stereo partly drawn) [Example 499, 5-(3-(((S)-1-(1H-tetrazol-1-yl)propan-2-yl)oxy)-4-chlorophenyl)-N-(1-((1r,4r)-4-morpholinocyclohexyl)-3-((tetrahydro-2H-pyran-3-yl)methoxy)-1H-pyrazol-4-yl)pyrimidin-2-amine] | < 0.01
C[C@@H](Cn1cnnn1)Oc1cc(-c2cnc(Nc3cn([C@H]4CC[C@H](N5CCOCC5)CC4)nc3OCCC(C)(C)O)nc2)ccc1Cl [Example 500, 4-((4-((5-(3-(((S)-1-(1H-tetrazol-1-yl)propan-2-yl)oxy)-4-chlorophenyl)pyrimidin-2-yl)amino)-1-((1r,4r)-4-morpholinocyclohexyl)-1H-pyrazol-3-yl)oxy)-2-methylbutan-2-ol] | < 0.01
C[C@@H](Cn1cnnn1)Oc1cc(-c2cnc(Nc3cn([C@H]4CC[C@H](N5CCOCC5)CC4)nc3OCc3cncs3)nc2)ccc1Cl [Example 501, 5-(3-(((S)-1-(1H-tetrazol-1-yl)propan-2-yl)oxy)-4-chlorophenyl)-N-(1-((1r,4r)-4-morpholinocyclohexyl)-3-(thiazol-5-ylmethoxy)-1H-pyrazol-4-yl)pyrimidin-2-amine] | < 0.01
C[C@@H](Cn1cnnn1)Oc1cc(-c2cnc(Nc3cn([C@H]4CC[C@H](N5CCOCC5)CC4)nc3OCc3ccnn3C)nc2)ccc1Cl [Example 502, 5-(3-(((S)-1-(1H-tetrazol-1-yl)propan-2-yl)oxy)-4-chlorophenyl)-N-(3-((1-methyl-1H-pyrazol-5-yl)methoxy)-1-((1r,4r)-4-morpholinocyclohexyl)-1H-pyrazol-4-yl)pyrimidin-2-amine] | < 0.01
C[C@@H](Cn1cnnn1)Oc1cc(-c2cnc(Nc3cn([C@H]4CC[C@H](N5CCOCC5)CC4)nc3OCc3ncco3)nc2)ccc1Cl [Example 503, 5-(3-(((S)-1-(1H-tetrazol-1-yl)propan-2-yl)oxy)-4-chlorophenyl)-N-(1-((1r,4r)-4-morpholinocyclohexyl)-3-(oxazol-2-ylmethoxy)-1H-pyrazol-4-yl)pyrimidin-2-amine] | < 0.01
C[C@@H](Cn1cnnn1)Oc1cc(-c2cnc(Nc3cn([C@H]4CC[C@H](N5CCOCC5)CC4)nc3OCc3nccs3)nc2)ccc1Cl [Example 504, 5-(3-(((S)-1-(1H-tetrazol-1-yl)propan-2-yl)oxy)-4-chlorophenyl)-N-(1-((1r,4r)-4-morpholinocyclohexyl)-3-(thiazol-2-ylmethoxy)-1H-pyrazol-4-yl)pyrimidin-2-amine] | < 0.01
C[C@@H](Cn1cnnn1)Oc1cc(-c2cnc(Nc3cn(C4CCC(N5CCOCC5)CC4)nc3OCc3ccnn3C)nc2)ccc1Cl (stereo partly drawn) [Example 505, 5-(3-(((S)-1-(1H-tetrazol-1-yl)propan-2-yl)oxy)-4-chlorophenyl)-N-(3-((1-methyl-1H-pyrazol-5-yl)methoxy)-1-((1r,4r)-4-morpholinocyclohexyl)-1H-pyrazol-4-yl)pyrimidin-2-amine] | < 0.01
Cc1noc(C)c1COc1nn([C@H]2CC[C@H](N3CCOCC3)CC2)cc1Nc1ncc(-c2ccc(Cl)c(O[C@@H](C)Cn3cnnn3)c2)cn1 [Example 506, 5-(3-(((S)-1-(1H-tetrazol-1-yl)propan-2-yl)oxy)-4-chlorophenyl)-N-(3-((3,5-dimethylisoxazol-4-yl)methoxy)-1-((1r,4r)-4-morpholinocyclohexyl)-1H-pyrazol-4-yl)pyrimidin-2-amine] | < 0.01
C[C@@H](Cn1cnnn1)Oc1cc(-c2cnc(Nc3cn([C@H]4CC[C@H](N5CCOCC5)CC4)nc3OCCn3ccnc3)nc2)ccc1Cl [Example 507, N-(3-(2-(1H-imidazol-1-yl)ethoxy)-1-((1r,4r)-4-morpholinocyclohexyl)-1H-pyrazol-4-yl)-5-(3-(((S)-1-(1H-tetrazol-1-yl)propan-2-yl)oxy)-4-chlorophenyl)pyrimidin-2-amine] | < 0.01
C[C@@H](Cn1cnnn1)Oc1cc(-c2cnc(Nc3cn([C@H]4CC[C@H](N5CCOCC5)CC4)nc3OCCCn3cncn3)nc2)ccc1Cl [Example 508, N-(3-(3-(1H-1,2,4-triazol-1-yl)propoxy)-1-((1r,4r)-4-morpholinocyclohexyl)-1H-pyrazol-4-yl)-5-(3-(((S)-1-(1H-tetrazol-1-yl)propan-2-yl)oxy)-4-chlorophenyl)pyrimidin-2-amine] | < 0.01
